Reference: US12528777B2, “Quinazolinones derivatives for treatment of non-alcoholic fatty liver disease, preparation and use thereof” (Council of Scientific and Industrial Research, priority 2020, dated 2026)

Columns and labels:
HepG2 cells = assay: Confocal microscopy: lipid droplets in oleate induced HepG2 cells; assay type: cell-based; parameters: key to Reduction in Lipid Droplets: + = slight or in insignificant; ++ = Moderate; +++ and ++++ = active; +++ and ++++ = active; +++++ = very active; conditions: for Reduction in Lipid Droplets: oleate induced HepG2 cells, score; for Number of lipid droplets: HepG2 cells, 250 μM oleate induction
Method: (§1) To select the compounds capable of inhibiting the ubiquitination of ATGL by COP1 by targeting the VP motif, confocal microscopy was performed with the provided molecules. If the compound was effective in inhibiting the interaction, there would be a reduction in the number of fat droplets in the cells after treatment. […] With this rationale in mind, HepG2 cells were induced to accumulate lipid droplets after treatment with 250 µM of oleate and 10 μM of the specific compounds were added. The potential of the compounds to bring about a reduction in the number of fat droplets was then checked by comparison with oleate induced cells by counting number of droplets of approximately 20 cells from each treatment and calculating the average number of lipid droplets of each cell. The selected compounds were then subjected to dose dependent treatments and the ones which could maintain its potency to reduce fat droplets at lower doses were then selected for western blot analysis. The compound which could reduce the number of fat droplets in the cells are expected to raise the levels of ATGL since they are likely to deter COP1 from ubiquitinating ATGL. This increase will be visible only in the protein level and gene expression is likely to remain unchanged since ubiquitination is a […] modification. Thus, western blot was performed to check ATGL levels in the cells with the selected molecules.
HepG2 cells were plated in confocal dishes (SPL, Genetix Biotech Asia Pvt. Ltd.). The cells were allowed to adhere and divide for 16 hours. 10 μM for initial screening and 10 nM, 20 nM, 50 nM, 100 nM, 200 nM, 500 nM, 1 μM and 5 μM for dose dependent assays of the compounds 9 and 107 were dissolved in DMSO and added to the cells. 250 μM of oleate was used for induction. BSA (Sigma Aldrich) was used as a negative control. Post 24 hours of treatment, media was decanted from the cells and washed with 1×PBS solution to remove any remnant. 200 μl of staining solution containing 200 ng/ml BODIPY (Invitrogen) and 25 µg/ml HOECKST342 (Invitrogen) were added to the cells and incubated at 37° C. for 30 minutes under dark conditions. Cells were washed 3 times with 1×PBS to remove excess stain. FLUOVIEW FV10i (Olympus) was used to visualise the cells.

ATGL = assay: Western blot of ATGL level in HepG2 cells; assay type: cell-based; parameters: key to Increase in ATGL level: + = slight or in insignificant; ++ = Moderate; +++ and ++++ = active; +++ and ++++ = active; +++++ = very active; conditions: western blot; for Increase in ATGL level: HepG2 cells, score; for ATGL level in HepG2 cells: 24 hours, 10 μM screening or 50 nM-5 μM dose dependent
Method: as §1
HepG2 cells were treated with the compounds 9, 10, 11, 17, 18, 23, 24, 115, 123, 127, 139,107, 171, 179, 73, 187, 211, 215, 219, 223, 232, 238, 241, 244, 258, 299, 308, and 333a, (10 μM for initial screening and 50 nM, 100 nM, 200 nM, 500 nM, 1 μM and 5 μM for dose dependent assays) for 24 hours. After removing media from the cells, the wells were washed with 1×PBS twice to remove any remnant media. Cells were then lysed in lysis buffer containing 50 mM Tris-HCl (pH 7.4), 100 mM NaCl, 1 mM EDTA, 1 mM EGTA, 1% Triton X-100 and protease inhibitor cocktail (Millipore, Billierica, MA, USA). Following centrifugation at 20,000 g for 20 minutes, the protein solution was extracted from the cells. Protein was estimated using Bradford assay. Bradford's reagent (BioRad) was diluted in 1:4 ratio in double distilled water. 2 μl of protein sample was added to 100 μl of the reagent and absorbance was measured at 595 nm. […] of protein was diluted in lysis buffer. 1× loading buffer diluted from 5× stock containing 250 mM Tris-HCl (pH 6.8), 10% SDS, 50% glycerol, 0.1% bromophenol Blue and 10% β-mercaptoethanol was added. The protein samples were then heated at 95° C. for 10 minutes, cooled and centrifuged at 12,000 g for 2 minutes prior to loading.
For western blotting, the proteins were resolved in 10% SDS PAGE (discontinuous buffer system). 1× running buffer containing SDS, Tris Base and Glycine was used to run the gel at 80V for approximately 2 hours. Transfer was done using PVDF membrane (Millipore) having pore size of 0.45 μm. 1× transfer buffer containing Tris-Base, Glycine and 20% methanol was used for wet transfer. Transfer was done at 90V for 3 hours. Following transfer, the PVDF membrane containing the proteins were washed in 1×PBST comprising of 1×PBS and 1% Tween 20 (Sigma Aldrich). The membrane was then incubated for 1 hour at room temperature in 5% skim milk powder to block the non-specific sites. Following multiple washes with 1×PBST to wash away any remaining blocking buffer, the required primary antibody (COP1 [Bethyl Laboraties], ATGL [Cell Signalling Technology] or Actin[Cell Signalling Technology]) prepared with 1×PBST, 1% Bovine Serum Albumin and 0.04% Sodium Azide was added to the membrane and incubated overnight at 4° C. The next day, the membrane was again washed multiple times with 1×PBST to remove any unbound primary antibody. The membrane was then incubated with goat anti-rabbit secondary antibody (Genei) for 1 hour at room temperature and washed again for multiple times with 1×PBST. […]

| Compound | Reduction in Lipid Droplets (HepG2 cells) | Increase in ATGL level (ATGL) | Number of lipid droplets (HepG2 cells) | ATGL level in HepG2 cells (ATGL) |
| --- | --- | --- | --- | --- |
| COCCn1cnc2ccc(NC(=O)Nc3ccc(OC)cc3)cc2c1=O [Compound 40, 1-(3-(2-methoxyethyl)-4-oxo-3,4-dihydroquinazolin-6-yl)-3-(4-methoxyphenyl)urea] | ++ | ++++ | – | – |
| COCCn1cnc2ccc(NC(=O)Nc3ccccc3OC)cc2c1=O [Compound 41, 1-(3-(2-methoxyethyl)-4-oxo-3,4-dihydroquinazolin-6-yl)-3-(2-methoxyphenyl)urea] | ++ | ++++ | – | – |
| CCOC(=O)c1cccc(NC(=O)Nc2ccc3ncn(CCOC)c(=O)c3c2)c1 [Compound 42, ethyl 3-(3-(3-(2-methoxyethyl)-4-oxo-3,4-dihydroquinazolin-6-yl)ureido)benzoate] | + | + | – | – |
| CCOC(=O)Cn1cnc2ccc(NC(=O)Nc3ccc(F)c(Cl)c3)cc2c1=O [Compound 83, ethyl 2-(6-(3-(3-chloro-4-fluorophenyl)ureido)-4-oxoquinazolin-3 (4H)-yl)acetate] | + | + | – | – |
| CCOC(=O)Cn1cnc2ccc(NC(=O)Nc3ccc(OC(F)(F)F)cc3)cc2c1=O [Compound 84, ethyl 2-(4-oxo-6-(3-(4-(trifluoromethoxy)phenyl)ureido)quinazolin-3 (4H)-yl)acetate] | +++ | ++ | – | – |
| CCOC(=O)Cn1cnc2ccc(NC(=O)Nc3cccc(C(C)=O)c3)cc2c1=O [Compound 85, ethyl 2-(6-(3-(3-acetylphenyl)ureido)-4-oxoquinazolin-3 (4H)-yl)acetate] | + | + | – | – |
| COCCCn1cnc2ccc(NC(=O)Nc3cccc(C(C)=O)c3)cc2c1=O [Compound 89, 1-(3-acetylphenyl)-3-(3-(3-methoxypropyl)-4-oxo-3,4-dihydroquinazolin-6-yl)urea] | +++ | + | reduction in lipid droplets | some sort of increase in ATGL level |
| CCOCCn1cnc2ccc(NC(=O)Nc3cccc(C(C)=O)c3)cc2c1=O [Compound 93, 1-(3-acetylphenyl)-3-(3-(2-ethoxyethyl)-4-oxo-3,4-dihydroquinazolin-6-yl)urea] | +++ | ++++ | reduction in lipid droplets | some sort of increase in ATGL level |
| CCOCCn1cnc2ccc(NC(=O)Nc3ccc(C(C)=O)cc3)cc2c1=O [Compound 94, 1-(4-acetylphenyl)-3-(3-(2-ethoxyethyl)-4-oxo-3,4-dihydroquinazolin-6-yl)urea] | ++ | + | – | – |
| COc1cccc(-n2cnc3ccc(NC(=O)Nc4cccc(C(C)=O)c4)cc3c2=O)c1 [Compound 103, 1-(3-acetylphenyl)-3-(3-(3-methoxyphenyl)-4-oxo-3,4-dihydroquinazolin-6-yl)urea] | + | + | reduction in lipid droplets | some sort of increase in ATGL level |
| COCCn1c(C(C)C)nc2ccc(NC(=O)Nc3cccc(C(C)=O)c3)cc2c1=O [Compound 111, 1-(3-acetylphenyl)-3-(2-isopropyl-3-(2-methoxyethyl)-4-oxo-3,4-dihydroquinazolin-6-yl)urea] | ++ | +++ | – | – |
| COCCn1c(-c2ccc(F)cc2)nc2ccc(NC(=O)Nc3cccc(C(C)=O)c3)cc2c1=O [Compound 115, 1-(3-acetylphenyl)-3-(2-(4-fluorophenyl)-3-(2-methoxyethyl)-4-oxo-3,4-dihydroquinazolin-6-yl)urea] | + | + | – | – |
| COCCn1c(-c2ccc(OC)cc2)nc2ccc(NC(=O)Nc3cccc(C(C)=O)c3)cc2c1=O [Compound 119, 1-(3-acetylphenyl)-3-(3-(2-methoxyethyl)-2-(4-methoxyphenyl)-4-oxo-3,4-dihydroquinazolin-6-yl)urea] | + | + | – | – |
| CC(=O)c1cccc(NC(=O)Nc2ccc3ncn(CCN4CCOCC4)c(=O)c3c2)c1 [Compound 135, 1-(3-acetylphenyl)-3-(3-(2-morpholinoethyl)-4-oxo-3,4-dihydroquinazolin-6-yl)urea] | ++ | +++ | reduction in lipid droplets | some sort of increase in ATGL level |
| CC(=O)c1cccc(NC(=O)Nc2ccc3ncn(CCN(C)C)c(=O)c3c2)c1 [Compound 143, 1-(3-acetylphenyl)-3-(3-(2-(dimethylamino)ethyl)-4-oxo-3,4-dihydroquinazolin-6-yl)urea] | +++ | ++++ | reduction in lipid droplets | some sort of increase in ATGL level |
| CC(=O)c1cccc(NC(=O)Nc2ccc3ncn(CCN4CCCCC4)c(=O)c3c2)c1 [Compound 147, 1-(3-acetylphenyl)-3-(4-oxo-3-(2-(piperidin-1-yl)ethyl)-3,4-dihydroquinazolin-6-yl)urea] | ++ | +++ | reduction in lipid droplets | some sort of increase in ATGL level |
| CC(=O)c1cccc(NC(=O)Nc2ccc3ncn(-c4cccnc4)c(=O)c3c2)c1 [Compound 155, 1-(3-acetylphenyl)-3-(4-oxo-3-(pyridin-3-yl)-3,4-dihydroquinazolin-6-yl)urea] | +++ | ++ | reduction in lipid droplets | some sort of increase in ATGL level |
| CC(=O)c1cccc(NC(=O)Nc2ccc3ncn(-c4ccccn4)c(=O)c3c2)c1 [Compound 159, 1-(3-acetylphenyl)-3-(4-oxo-3-(pyridin-2-yl)-3,4-dihydroquinazolin-6-yl)urea] | – | + | reduction in lipid droplets | some sort of increase in ATGL level |
| CC(=O)c1cccc(NC(=O)Nc2ccc3ncn(C4CCN(C)CC4)c(=O)c3c2)c1 [Compound 163, 1-(3-acetylphenyl)-3-(3-(1-methylpiperidin-4-yl)-4-oxo-3,4-dihydroquinazolin-6-yl)urea] | ++ | + | reduction in lipid droplets | some sort of increase in ATGL level |
